Experimental findings from patent US20230279020A9, “CARM1 INHIBITORS AND USES THEREOF” (Epizyme, Inc., priority 2013, published 2023) are described below.

In the experiment the target is Human CARM1 (PRMT4) (Homo sapiens (Human), UniProt Q86X55). The experiment is described as follows: CARM1 enzyme assay on peptide substrate (3H-SAM Flashplate). As to conditions: Biochemical potencies, classification codes; read-out: Biochem IC50.
Human CARM1 (PRMT4), sequence (Q86X55 other isoform, or with tags, fused parts or gaps isoform Q86X55-1): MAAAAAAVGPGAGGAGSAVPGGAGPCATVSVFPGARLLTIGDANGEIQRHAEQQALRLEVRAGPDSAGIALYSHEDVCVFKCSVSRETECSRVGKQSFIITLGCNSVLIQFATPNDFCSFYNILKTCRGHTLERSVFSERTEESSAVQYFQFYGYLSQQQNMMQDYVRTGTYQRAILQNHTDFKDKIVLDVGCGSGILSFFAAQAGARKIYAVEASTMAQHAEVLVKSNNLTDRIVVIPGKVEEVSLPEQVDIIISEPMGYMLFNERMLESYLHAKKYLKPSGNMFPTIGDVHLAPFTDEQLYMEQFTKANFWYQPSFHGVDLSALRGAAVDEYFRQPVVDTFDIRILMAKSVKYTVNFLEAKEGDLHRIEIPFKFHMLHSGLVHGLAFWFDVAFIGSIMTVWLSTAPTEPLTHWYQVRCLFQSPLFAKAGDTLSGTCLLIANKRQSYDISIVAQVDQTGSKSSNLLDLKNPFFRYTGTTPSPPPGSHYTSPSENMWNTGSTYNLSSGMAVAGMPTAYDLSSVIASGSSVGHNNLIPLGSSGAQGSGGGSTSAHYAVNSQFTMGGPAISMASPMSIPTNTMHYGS
With `CNCC(O)COc1cccc(-c2nc(N[C@H]3C[C@@H](C(C)(C)O)C3)c(C)c(-c3c(C)noc3C)n2)c1` (stereo partly shown) [Example 232-1a], the IC50 (usually the point on the concentration scale where inhibition reaches its midpoint) was < 100 nM.

On to `CNC[C@@H](O)COc1ccc(Cl)c(-c2nc(-c3c(C)noc3C)c(C)c(N3Cc4cc(OC)cnc4C3)n2)c1` [Example 232-3], for which the IC50 is < 100 nM.

Take `CNCC(O)COc1cccc(-c2nc(Nc3cc(C)on3)c(C)c(-c3c(C)noc3C)n2)c1` (stereo not shown) [Example 233-1a]: the IC50 is < 100 nM.

`CNC[C@@H](O)COc1ccc(Cl)c(-c2nc(NC[C@H]3CCOC3)c(C)c(-c3c(C)noc3C)n2)c1` [Example 233-3]: the half-inhibitory concentration (IC50) was < 100 nM.

Turning to `CNCC(O)COc1cccc(-c2nc(N[C@H]3CC[C@H](OC)C3)c(C)c(-c3c(C)noc3C)n2)c1` (stereo partly shown) [Example 234-1a], the 50% inhibitory concentration (IC50) was < 100 nM.

`CNC[C@@H](O)COc1ccc(Cl)c(-c2nc(-c3c(C)noc3C)c(C)c(N3CCC4(CC4)C3)n2)c1` [Example 234-3]: the concentration for half-maximal inhibition (IC50) was < 100 nM.

`CNCC(O)COc1cccc(-c2nc(-c3c(C)noc3C)c(C)c(N3CCN(Cc4ccccc4)C(C(F)F)C3)n2)c1` (stereo not shown) [Example 235-1a]: the IC50 was < 100 nM.

For the compound `CNC[C@@H](O)COc1ccc(Cl)c(-c2nc(-c3c(C)noc3C)c(C)c(N3CC4CC4C3)n2)c1` (stereo partly shown) [Example 235-3], the 50% inhibitory concentration (IC50) is < 100 nM.

As to `CNCC(O)COc1cccc(-c2nc(NC3CCOCC3)c(C)c(-c3c(C)noc3C3CC3)n2)c1` (stereo not shown) [Example 236-1a], the IC50 is < 100 nM.

Consider `CNC[C@@H](O)COc1ccc(Cl)c(-c2nc(-c3c(C)noc3C)c(C)c(N3Cc4c(C)nn(C)c4C3)n2)c1` [Example 236-3], for which the IC50 was < 100 nM.

As for `CNCC(O)COc1cccc(-c2nc(NC3CN(CC(F)F)C3)c(C)c(-c3c(C)noc3C)n2)c1` (stereo not shown) [Example 237-1a], the IC50 was < 100 nM.

In the case of `CCOC(=O)N1CC(Nc2nc(-c3cccc(OCC(O)CNC)c3)nc(-c3c(C)noc3C)c2C)C1` (stereo not shown) [Example 238-1a], the IC50 was < 100 nM.

For `CNC[C@@H](O)COc1ccc(Cl)c(-c2nc(-c3c(C)noc3C)c(C)c(N3CCC3)n2)c1` [Example 238-3], the half-inhibitory concentration (IC50) is < 100 nM.

Take `CNCC(O)COc1cccc(-c2nc(NC3CCOC(C)C3)c(C)c(-c3c(C)noc3C)n2)c1` (stereo not shown) [Example 239-1a]: the IC50 was < 100 nM.

Consider `CNC[C@@H](O)COc1ccc(Cl)c(-c2nc(-c3cnn(C)c3)c(C)c(-c3c(C)noc3C)n2)c1` [Example 239-3], for which the 50% inhibitory concentration (IC50) was < 100 nM.

Take `CNCC(O)COc1cccc(-c2nc(NC3CCN(C4COC4)C3)c(C)c(-c3c(C)noc3C)n2)c1` (stereo not shown) [Example 240-1a]: the IC50 is < 100 nM.

As for `CCO[C@@H]1CCC[C@H]1Nc1nc(-c2cc(OC[C@H](O)CNC)ccc2Cl)nc(-c2c(C)noc2C)c1C` [Example 240-3], the IC50 is < 100 nM.

Take `CNCC(O)COc1cccc(-c2nc(NC3CCCC3)c(C)c(-c3c(C)noc3C)n2)c1` (stereo not shown) [Example 241-1a]: the IC50 is < 100 nM.

Take `CCO[C@@H]1CCC[C@H]1N(CC)c1nc(-c2cc(OC[C@H](O)CNC)ccc2Cl)nc(-c2c(C)noc2C)c1C` [Example 241-3]: the half-maximal inhibitory concentration (IC50) is < 100 nM.

Regarding `CNCC(O)COc1cccc(-c2nc(NC3C[C@H]4CC[C@@H](C3)N4C(=O)OC)c(C)c(-c3c(C)noc3C)n2)c1` (stereo partly shown) [Example 242-1a], the IC50 is < 100 nM.

For the compound `CCO[C@H]1CCC[C@H]1Nc1nc(-c2cc(OC[C@H](O)CNC)ccc2Cl)nc(-c2c(C)noc2C)c1C` [Example 242-3], the IC50 was < 100 nM.

With `CNCC(O)COc1cccc(-c2nc(NC3CCN(C(=O)C4CC4)C3)c(C)c(-c3c(C)noc3C)n2)c1` (stereo not shown) [Example 243-1a], the IC50 is < 100 nM.

Turning to `CNC[C@@H](O)COc1ccc(Cl)c(-c2nc(-c3c(C)noc3C)c(Cl)c(N3Cc4nc(C)sc4C3)n2)c1` [Example 243-3], the IC50 was < 100 nM.

Turning to `CNCC(O)COc1cccc(-c2nc(NC3CCN(C(=O)N(C)C)CC3)c(C)c(-c3c(C)noc3C)n2)c1` (stereo not shown) [Example 244-1a], the IC50 is < 100 nM.

With `CNC[C@@H](O)COc1ccc(F)c(-c2nc(-c3c(C)noc3C)c(C)c(N3Cc4cc(OC)cnc4C3)n2)c1` [Example 244-3], the IC50 is < 100 nM.

Turning to `CNCC(O)COc1cccc(-c2nc(NC3CCN(C(=O)C4CC4)CC3)c(C)c(-c3c(C)noc3C)n2)c1` (stereo not shown) [Example 245-1a], the IC50 was < 100 nM.

As for `CNC[C@@H](O)COc1ccc(Cl)c(-c2nc(-c3c(C)noc3C)c(C)c(N3Cc4cnc(C)nc4C3)n2)c1` [Example 245-3], the IC50 is < 100 nM.

For `CNCC(O)COc1cccc(-c2nc(NC3CCCN(C4COC4)C3)c(C)c(-c3c(C)noc3C)n2)c1` (stereo not shown) [Example 246-1a], the IC50 was < 100 nM.

For `CNC[C@@H](O)COc1ccc(Cl)c(-c2nc(-c3c(C)noc3C)c(C)c(N3CC4(CCC4)C3)n2)c1` [Example 246-3], the 50% inhibitory concentration (IC50) was < 100 nM.

Consider `CNCC(O)COc1cccc(-c2nc(NC3CCCN(C(=O)C4CC4)C3)c(C)c(-c3c(C)noc3C)n2)c1` (stereo not shown) [Example 247-1a], for which the IC50 was < 100 nM.

Consider `CNC[C@@H](O)COc1ccc(C(F)(F)F)c(-c2nc(-c3c(C)noc3C)c(C)c(N3Cc4cncnc4C3)n2)c1` [Example 247-3], for which the half-maximal inhibitory concentration (IC50) was < 100 nM.

Consider `CNCC(O)COc1cccc(-c2nc(NCC3CCN(C(=O)N(C)C)CC3)c(C)c(-c3c(C)noc3C)n2)c1` (stereo not shown) [Example 248-1a], for which the IC50 is < 100 nM.

Consider `CNC[C@@H](O)COc1ccc(Cl)c(-c2nc(-c3c(C)noc3C)c(C)c(N3Cc4cc(Br)cnc4C3)n2)c1` [Example 248-3], for which the IC50 is < 100 nM.

`CNCC(O)COc1cccc(-c2nc(NCC3CCN(C(=O)C4CC4)CC3)c(C)c(-c3c(C)noc3C)n2)c1` (stereo not shown) [Example 249-1a]: the IC50 was < 100 nM.

`CNC[C@@H](O)COc1ccc(Cl)c(-c2nc(-c3c(C)noc3C)cc(N3CC4(CCOCC4)C3)n2)c1` [Example 249-3]: the IC50 was < 100 nM.

Regarding `CNCC(O)COc1cccc(-c2nc(N[C@@H]3CCC[C@@H]3O)c(C)c(-c3c(C)noc3C)n2)c1` (stereo partly shown) [Example 250-1a], the IC50 is < 100 nM.

For the compound `CNC[C@@H](O)COc1ccc(Cl)c(-c2nc(-c3c(C)noc3C)cc(N3Cc4cnn(C)c4C3)n2)c1` [Example 250-3], the IC50 is < 100 nM.

Take `CNCC(O)COc1cccc(-c2nc(-c3c(C)noc3C)c(C)c(N3CCC4(CC3)CN(C(=O)OC)C4)n2)c1` (stereo not shown) [Example 251-1a]: the IC50 was < 100 nM.

With `CNC[C@@H](O)COc1ccc(Cl)c(-c2nc(-c3c(C)noc3C)cc(N3Cc4nccnc4C3)n2)c1` [Example 251-3], the half-maximal inhibitory concentration (IC50) was < 100 nM.

Turning to `CNCC(O)COc1cccc(-c2nc(-c3c(C)noc3C)c(C)c(N3CCC4(CC3)CN(C(=O)N(C)C)C4)n2)c1` (stereo not shown) [Example 252-1a], the IC50 was < 100 nM.

On to `CNC[C@@H](O)COc1ccc(Cl)c(-c2nc(-c3c(C)noc3C)c(C)c(N3Cc4nn(C)c(C)c4C3)n2)c1` [Example 252-3], for which the 50% inhibitory concentration (IC50) was < 100 nM.

On to `CCS(=O)(=O)N1CC2(CCN(c3nc(-c4cccc(OCC(O)CNC)c4)nc(-c4c(C)noc4C)c3C)CC2)C1` (stereo not shown) [Example 253-1a], for which the IC50 is < 100 nM.

Turning to `CCO[C@@H]1CCC[C@@H]1Nc1nc(-c2cc(OC[C@H](O)CNC)ccc2Cl)nc(-c2c(C)noc2C)c1C` [Example 253-3], the IC50 is < 100 nM.

Take `CNCC(O)COc1cccc(-c2nc(N[C@H]3C[C@H](O)C3)c(C)c(-c3c(C)noc3C)n2)c1` (stereo partly shown) [Example 254-1a]: the IC50 was < 100 nM.

For `CCO[C@@H]1CCC[C@@H]1N(CC)c1nc(-c2cc(OC[C@H](O)CNC)ccc2Cl)nc(-c2c(C)noc2C)c1C` [Example 254-3], the concentration for half-maximal inhibition (IC50) is < 100 nM.

On to `CNCC(O)COc1cccc(-c2nc(N[C@H]3C[C@@](C)(O)C3)c(C)c(-c3c(C)noc3C)n2)c1` (stereo partly shown) [Example 255-1a], for which the IC50 was < 100 nM.

Turning to `CCO[C@H]1CCC[C@H]1N(CC)c1nc(-c2cc(OC[C@H](O)CNC)ccc2Cl)nc(-c2c(C)noc2C)c1C` [Example 255-3], the IC50 is < 100 nM.

For `CNCC(O)COc1cccc(-c2nc(N[C@H]3C[C@@H](O)C3)c(C)c(-c3c(C)noc3C)n2)c1` (stereo partly shown) [Example 256-1a], the 50% inhibitory concentration (IC50) was < 100 nM.

Turning to `CNCC(O)COc1cccc(-c2nc(NC3CCOCC3)c(C)c(-c3c(CO)noc3C)n2)c1` (stereo not shown) [Example 256-3], the IC50 is < 100 nM.

Take `CNC[C@@H](O)COc1ccc(Cl)c(-c2nc(N[C@@H]3CCO[C@@H](C)C3)c(C)c(-c3c(C)noc3C)n2)c1` [Example 257-3]: the IC50 is < 100 nM.

Turning to `CNCC(O)COc1cccc(-c2nc(NC[C@H]3COCCN3C(=O)N(C)C)c(C)c(-c3c(C)noc3C)n2)c1` (stereo partly shown) [Example 258-1a], the IC50 was < 100 nM.

For the compound `CNC[C@@H](O)COc1ccc(Cl)c(-c2nc(NC3CCN(C)CC3(F)F)c(C)c(-c3c(C)noc3C)n2)c1` (stereo partly shown) [Example 258-3], the IC50 was < 100 nM.

Turning to `CNCC(O)COc1cccc(-c2nc(OCC3CCN(C(=O)OCc4ccccc4)CC3)c(C)c(-c3c(C)noc3C)n2)c1` (stereo not shown) [Example 259-1a], the IC50 is < 100 nM.

Regarding `CNC[C@@H](O)COc1ccc(Cl)c(-c2nc(-c3c(C)noc3C)c(C)c(N3Cc4cnc(C5CC5)nc4C3)n2)c1` [Example 259-3], the IC50 is < 100 nM.

Consider `CNCC(O)COc1cccc(-c2nc(N[C@@H]3CCN(C4CC4)C[C@@H]3F)c(C)c(-c3c(C)noc3C)n2)c1` (stereo partly shown) [Example 260-1a], for which the IC50 was < 100 nM.

Turning to `CNC[C@@H](O)COc1ccc(F)c(-c2nc(-c3c(C)noc3C)c(C)c(N3Cc4cncnc4C3)n2)c1` [Example 260-3], the IC50 was < 100 nM.

With `CNCC(O)COc1cccc(-c2nc(N[C@@H]3CCN(C4CC4)C[C@H]3F)c(C)c(-c3c(C)noc3C)n2)c1` (stereo partly shown) [Example 261-1a], the half-inhibitory concentration (IC50) is < 100 nM.

Take `CNC[C@@H](O)COc1ccc(Cl)c(-c2nc(-c3c(C)noc3C)c(F)c(N3CC4(CCOCC4)C3)n2)c1` [Example 261-3]: the 50% inhibitory concentration (IC50) is < 100 nM.

For the compound `CNCC(O)COc1cccc(-c2nc(NCC3CCN(C4COC4)CC3)c(C)c(-c3c(C)noc3C)n2)c1` (stereo not shown) [Example 262-1a], the IC50 was < 100 nM.

With `CNCC(O)COc1cccc(-c2nc(NC3CCN(C4COC4)CC3)c(C)c(-c3c(C)noc3C)n2)c1` (stereo not shown) [Example 263-1a], the concentration for half-maximal inhibition (IC50) is < 100 nM.

`CNC[C@@H](O)COc1ccc(Cl)c(-c2nc(-c3c(C)noc3C)c(C)c(N3Cc4cnc(C(F)(F)F)nc4C3)n2)c1` [Example 263-3]: the IC50 was < 100 nM.
